The values that follow come from patent US10087144B2, “Agents for use in the treatment of cardiovascular and inflammatory diseases structurally based on 4(1 H)-quinolone” (UCL Business PLC, priority 2015, dated 2018).

In this assay the test system is rat mesenteric arteries. The assay is described as follows: Vasoreactivity in rat mesenteric arteries in vitro (relaxation of U46619-contracted vessels, tension myograph). Particulars: for inhibition at 1 µM / inhibition at 3 µM / inhibition at 10 µM / inhibition at 30 µM / EC50: Rattus norvegicus; for inhibition at 1 µM / inhibition at 3 µM / inhibition at 10 µM / inhibition at 30 µM / % relaxation 1 μM / % relaxation 3 μM / % relaxation 10 μM / % relaxation 30 μM: U46619-contracted third-order arteries; for EC50: vasorelaxation, calculated from concentration-response curves. How it is done: Male rats (Sprague-Dawley; 200-250 g) were stunned and killed by cervical dislocation. The mesentery was removed and third-order arteries mounted in an automated tension myograph (Danish Myotechnology). After an equilibration period of 45 min, vessels were normalized and diameter determined. Following normalization, each vessel was contracted repeatedly with the thromboxane A2-mimetic 9,11-dideoxy-11^α,9^α-epoxymethano-prostaglandin F2α (U46619; 1 μM) until the response was reproducible. The vessels were then washed to restore basal tone before contracting to approximately 50% of the maximum U46619-induced response. Once a stable response to U46619 was achieved, cumulative concentration-response curves were constructed with a variety of NPR-C agonists of the invention at varying concentrations (0.001-30 μM), or vehicle (DMSO). In some studies, concentration-response curves to NPR-C agonists were conducted in the presence of the NPR-C antagonist M372049 (10 μM). Only one curve to any one agonist was constructed in any single tissue.

In the case of `CC(C)(C)OC(=O)n1cc(C(=O)O)c(=O)c2ccccc21` [Compound 81], the inhibition at 1 µM was 1%, at 3 µM the inhibition was 1%, the inhibition at 10 µM is 7% and the inhibition at 30 µM was 25%.

For `CC(C)C(NC(=O)c1cnc2ccccn2c1=O)C(=O)O` (centres unmarked) [Compound 120], the “% relaxation 1 μM” value stood at 0%, the “% relaxation 3 μM” value was 3%, the “% relaxation 10 μM” value amounted to 3% and the “% relaxation 30 μM” value is listed as 20%.

In the case of `O=C(O)CNC(=O)c1cnc2ccccn2c1=O` [Compound 121], the “% relaxation 1 μM” value is reported as 5%, the “% relaxation 3 μM” value was 2%, the “% relaxation 10 μM” value was determined as 3% and the “% relaxation 30 μM” value is reported as 17%.

For `CCn1cc(C(=O)O)c(=O)c2ccc(C)nc21` [Compound 137], the “% relaxation 1 μM” value is reported as 0%, the “% relaxation 3 μM” value stood at 1%, the “% relaxation 10 μM” value came to 9% and the “% relaxation 30 μM” value is listed as 69%.

Consider `O=C(O)c1cn(Cc2cccc(Cl)c2)c2ccccc2c1=O` [Compound 155, 1-(3-Chlorobenzyl)-4-oxo-1,4-dihydroquinoline-3-carboxylic acid], for which the inhibition at 1 µM is 4%, at 3 µM the inhibition was 6%, at 10 µM the inhibition was 10% and the inhibition at 30 µM is 25%.

Regarding `CCn1cc(C(=O)NCC(=O)O)c(=O)c2ccccc21` [Compound 171, 2-(1-Ethyl-4-oxo-1,4-dihydroquinoline-3-carboxamido)acetic acid], the inhibition at 1 µM was found to be 2%, the inhibition at 3 µM worked out at 2%, the inhibition at 10 µM was determined as 8% and at 30 µM the inhibition was 20%. In addition, the EC50 is more than 50 µM.

Consider `O=C(O)CNC(=O)c1cn(Cc2cccc(Cl)c2)c2ccccc2c1=O` [Compound 172, 2-(1-(3-Chlorobenzyl)-4-oxo-1,4-dihydroquinoline-3-carboxamido)acetic acid], for which testing at 1 µM gave an inhibition of 5%, testing at 3 µM gave an inhibition of 20%, testing at 10 µM gave an inhibition of 43% and 30 µM produced 91% inhibition. In addition, the EC50 is more than 50 µM.

Regarding `O=C(O)CNC(=O)c1cn(Cc2ccccc2F)c2ccccc2c1=O` [Compound 173, 2-(1-(2-Fluorobenzyl)-4-oxo-1,4-dihydroquinoline-3-carboxamido)acetic acid], the inhibition at 1 µM is 4%, at 3 µM the inhibition was 13%, the inhibition at 10 µM was 15% and testing at 30 µM gave an inhibition of 79%. Besides, the EC50 is more than 50 µM.

`COc1ccc(Cn2cc(C(=O)NCC(=O)O)c(=O)c3ccccc32)cc1` [Compound 174, 2-(1-(4-Methoxybenzyl)-4-oxo-1,4-dihydroquinoline-3-carboxamido)acetic acid] came in with an inhibition at 1 µM of 4%, an inhibition at 3 µM of 4%, an inhibition at 10 µM of 8% and an inhibition at 30 µM of 20%. Besides, the EC50 was more than 50 µM.

As to `Cc1cc(C)cc(Cn2cc(C(=O)NCC(=O)O)c(=O)c3ccccc32)c1` [Compound 175, 2-(1-(3.5-Dimethylbenzyl)-4-oxo-1,4-dihydroquinoline-3-carboxamido)acetic acid], 1 µM produced 8% inhibition, the inhibition at 3 µM came to 8%, 10 µM produced 12% inhibition and the inhibition at 30 µM was 88%. The concentration for a half-maximal effect (EC50) was more than 50 µM.

`O=C(O)CNC(=O)c1cn(Cc2ccc(OC(F)(F)F)cc2)c2ccccc2c1=O` [Compound 176, 2-(4-Oxo-1-(4-(trifluoromethoxy)benzyl)-1,4-dihydroquinoline-3-carboxamido)acetic acid] yielded an inhibition at 1 µM of 8%, an inhibition at 3 µM of 9%, an inhibition at 10 µM of 17% and an inhibition at 30 µM of 91%. The half-maximal effective concentration (EC50) was more than 50 µM.

The compound `O=C(O)CNC(=O)c1cn(Cc2ccccc2Cl)c2ccccc2c1=O` [Compound 177, 2-(1-(2-Chlorobenzyl)-4-oxo-1,4-dihydroquinoline-3-carboxyamido)acetic acid] showed an inhibition at 1 µM of 1%, an inhibition at 3 µM of 3%, an inhibition at 10 µM of 6% and an inhibition at 30 µM of 52%. Besides, the EC50 was more than 50 µM.

`O=C(O)CNC(=O)c1c[nH]c2ccccc2c1=O` [Compound 178, 2-(4-Oxo-1,4-dihydroquinoline-3-carboxamido)acetic acid] displayed an inhibition at 1 µM of 5%, an inhibition at 3 µM of 6%, an inhibition at 10 µM of 11% and an inhibition at 30 µM of 16%. Further, the EC50 was 17.4 µM.

The compound `O=C(N[C@@H](Cc1ccccc1)C(=O)O)c1cn(Cc2ccccc2)c2ccc(Br)cc2c1=O` [Compound 187, (S)-2-(1-benzyl-6-bromo-4-oxo-1,4-dihydroquinoline-3-carboxamido)-3-phenylpropanoic acid] yielded an inhibition at 1 µM of 31%, an inhibition at 3 µM of 57%, an inhibition at 10 µM of 93% and an inhibition at 30 µM of 100%. The EC50 was 1.6 µM.

In turn, `CC(C)C[C@H](NC(=O)c1cn(Cc2ccccc2)c2ccc(Br)cc2c1=O)C(=O)O` [Compound 188, (S)-2-(1-benzyl-6-bromo-4-oxo-1,4-dihydroquinoline-3-carboxamido)-4-methylpentanoic acid] gave an inhibition at 1 µM of 4%, an inhibition at 3 µM of 3%, an inhibition at 10 µM of 2% and an inhibition at 30 µM of 87%. The 50% effective concentration (EC50) was more than 50 µM.

The compound `C[C@H](NC(=O)c1cn(Cc2ccccc2)c2ccc(Br)cc2c1=O)C(=O)O` [Compound 189, (S)-2-(1-benzyl-6-bromo-4-oxo-1,4-dihydroquinoline-3-carboxamido)propanoic acid] yielded an inhibition at 1 µM of 4%, an inhibition at 3 µM of 12%, an inhibition at 10 µM of 64% and an inhibition at 30 µM of 84%.

In turn, `O=C(N[C@@H](Cc1ccccc1)C(=O)O)c1cn(Cc2ccccc2)c2ccccc2c1=O` [Compound 200, (S)-2-(1-benzyl-4-oxo-1,4-dihydroquinoline-3-carboxamido)-3-phenylpropanoic acid] registered an inhibition at 1 µM of 4%, an inhibition at 3 µM of 10%, an inhibition at 10 µM of 67% and an inhibition at 30 µM of 89%. Moreover, the concentration for a half-maximal effect (EC50) is more than 50 µM.

As to `CC(C)C[C@H](NC(=O)c1cn(Cc2ccccc2)c2ccccc2c1=O)C(=O)O` [Compound 201, (S)-2-(1-benzyl-4-oxo-1,4-dihydroquinoline-3-carboxamido)-4-methylpentanoic acid], at 1 µM the inhibition was 0%, the inhibition at 3 µM is 0%, the inhibition at 10 µM is 0% and the inhibition at 30 µM stood at 82%. The concentration giving a half-maximal response (EC50) was more than 50 µM.

For the compound `C[C@H](NC(=O)c1cn(Cc2ccccc2)c2ccccc2c1=O)C(=O)O` [Compound 202, (S)-2-(1-benzyl-4-oxo-1,4-dihydroquinoline-3-carboxamido)-2-methylethanoic acid], the inhibition at 1 µM turned out to be 2%, the inhibition at 3 µM amounted to 3%, the inhibition at 10 µM turned out to be 20% and 30 µM produced 36% inhibition. For the same compound, the half-maximal effective concentration (EC50) is 20.3 µM.

Consider `CC(NC(=O)c1cnc2ccccn2c1=O)C(=O)O` (centres unmarked) [Compound 203], for which the “% relaxation 1 μM” value was found to be 7%, the “% relaxation 3 μM” value is reported as 6%, the “% relaxation 10 μM” value worked out at 28% and the “% relaxation 30 μM” value amounted to 50%.

Regarding `CC(C)CC(NC(=O)c1cnc2ccccn2c1=O)C(=O)O` (centres unmarked) [Compound 204], the “% relaxation 1 μM” value is 9%, the “% relaxation 3 μM” value was 18%, the “% relaxation 10 μM” value stood at 30% and the “% relaxation 30 μM” value is reported as 92%.

For `O=C(NC(Cc1ccccc1)C(=O)O)c1cnc2ccccn2c1=O` (centres unmarked) [Compound 205], the “% relaxation 1 μM” value is listed as −9%, the “% relaxation 3 μM” value amounted to 13%, the “% relaxation 10 μM” value is recorded as 13% and the “% relaxation 30 μM” value was 14%.

The inhibition is the change of the read-out against control, counted positive when it falls. A low value points to a weak effect. In general, EC50 refers to the concentration that produces a half-maximal response.
